How the values were obtained:
Format in all cases: in vivo
[1] = tested on: Cyperus difformis (smallflower umbrella plant); test: Test Example-1: herbicidal effect by a treatment before weeds are generated under submerged conditions; conditions: 500 g a.i/ha, pre-emergence treatment, about 15 days after treatment, score 0-5
Summary of the method: (§1)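 Pre-emergence, submerged paddy soil; WP/EC formulation diluted, applied to floodwater at seeding day at predetermined dose; visual herbicidal score 0–5 at ~15 days after treatment.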

[2] = tested on: Echinochloa oryzicola (barnyard grass); test: as above; conditions: 500 g a.i/ha, pre-emergence treatment, about 15 days after treatment, score 0-5
Summary of the method: as §1

[3] = tested on: Eleocharis acicularis (needle spikerush); test: as above; conditions: 500 g a.i/ha, pre-emergence treatment, about 15 days after treatment, score 0-5
Summary of the method: as §1

[4] = tested on: Monochoria vaginalis (monochoria); test: as above; conditions: 500 g a.i/ha, pre-emergence treatment, about 15 days after treatment, score 0-5
Summary of the method: as §1

[5] = tested on: Scirpus juncoides (bulrush); test: as above; conditions: 500 g a.i/ha, pre-emergence treatment, about 15 days after treatment, score 0-5
Summary of the method: as §1

[6] = tested on: other annual broad leaf weeds (Lindernia procumbens, Rotala indica, Elatine triandra); test: as above; conditions: 500 g a.i/ha, pre-emergence treatment, about 15 days after treatment, score 0-5
Summary of the method: as §1

[7] = tested on: Amaranthus viridis (green amaranthus); test: Test Example-2: herbicidal effect by a soil treatment before weeds are generated under upland field conditions; conditions: application amount 500 g a.i/ha, soil spray treatment before weeds are generated, about 21 days after the treatment, score 0 to 5
From the text: (§2) Using the formulation prepared according to the methods described above, the herbicidal effect of the bicyclic pyrazolinone derivative of the invention according to the methods shown in Test Examples below was examined. The herbicidal effect with respect to the test weeds or the phytotoxicity with respect to the test crops was examined according to the following criteria, and evaluated in six stage scores of 0 to 5. A vat having an area of 81 cm^2 and a depth of 3.5 cm was filled with upland soil, then, seeds of Amaranthus viridis (green amaranthus), Chenopodium album (common lambsquarters), and corn were seeded thereto, and the seeds were covered with soil of about 0.5 cm. Next day, a wettable powder or an emulsifiable concentrate of the compound of the present invention prepared according to Formulation Example was diluted, and a spray treatment was uniformly performed on the covered oil so as to be a predetermined dosage. The herbicidal effect with respect to the test weeds and the phytotoxicity with respect to corn about 21 days after the treatment were evaluated according to the evaluation criteria in six stages of 0 to 5 described above.

[8] = tested on: Chenopodium album (common lambsquarters); test: as above; conditions: application amount 500 g a.i/ha, soil spray treatment before weeds are generated, about 21 days after the treatment, score 0 to 5
From the text: as §2

corn [9] = test: Test Example-2: phytotoxicity by a soil treatment before weeds are generated under upland field conditions; conditions: application amount 500 g a.i/ha, soil spray treatment before weeds are generated, about 21 days after the treatment, score 0 to 5
From the text: as §2

[10] = tested on: Abutilon theophrasti (velvetleaf); test: Test Example-4: herbicidal effect by a foliage treatment after weeds are generated under upland field conditions; conditions: 500 g a.i/ha, foliage treatment after emergence, about 14 days after treatment, score 0-5
Summary of the method: (§3)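 Upland soil; seeds covered ~0.5 cm, grown 14 d. Foliar spray of diluted WP or EC, predetermined dose, 4000 L water/ha. Herbicidal effect and corn phytotoxicity scored on a six-stage 0–5 scale ~14 d post-treatment.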

[11] = tested on: Amaranthus viridis (green amaranthus); test: as above; conditions: 500 g a.i/ha, foliage treatment after emergence, about 14 days after treatment, score 0-5
Summary of the method: as §3

[12] = tested on: Chenopodium album (common lambsquarters); test: as above; conditions: 500 g a.i/ha, foliage treatment after emergence, about 14 days after treatment, score 0-5
Summary of the method: as §3

corn [13] = test: Test Example-4: phytotoxicity by a foliage treatment after weeds are generated under upland field conditions; conditions: 500 g a.i/ha, foliage treatment after emergence, about 14 days after treatment, score 0-5
Summary of the method: as §3

Compound	Herbicidal effect Cyperus difformis [1]	Herbicidal effect Echinochloa oryzicola [2]	Herbicidal effect Eleocharis acicularis [3]	Herbicidal effect Monochoria vaginalis [4]	Herbicidal effect Scirpus juncoides [5]	Herbicidal effect Broadleaf weed [6]	Herbicidal effect Amaranthus viridis [7]	Herbicidal effect Chenopodium album [8]	Phytotoxicity Corn (corn [9])	Herbicidal effect Abutilon theophrast [10]	Herbicidal effect Amaranthus viridis [11]	Herbicidal effect Chenopodium album [12]	Phytotoxicity Corn (corn [13])
CCOC(=O)C(OCC)Oc1ccccc1Oc1cc(-c2c(Cl)n3n(c2=O)CCCC3)c(F)cc1Cl (stereo not shown) [Compound 3-18]	5 (Herbicidal effect/phytotoxicity was 90% or greater)	5 (Herbicidal effect/phytotoxicity was 90% or greater)	5 (Herbicidal effect/phytotoxicity was 90% or greater)	5 (Herbicidal effect/phytotoxicity was 90% or greater)	5 (Herbicidal effect/phytotoxicity was 90% or greater)	5 (Herbicidal effect/phytotoxicity was 90% or greater)	5 (Herbicidal effect/phytotoxicity was 90% or greater)	5 (Herbicidal effect/phytotoxicity was 90% or greater)	0 (Herbicidal effect/phytotoxicity was 0% to 10%)	–	–	–	–
Cc1ccc(Oc2cc(-c3c(Cl)n4n(c3=O)CCCC4)c(F)cc2Cl)c(O)c1 [Compound 3-40]	–	–	–	–	–	–	5 (Herbicidal effect/phytotoxicity was 90% or greater)	5 (Herbicidal effect/phytotoxicity was 90% or greater)	0 (Herbicidal effect/phytotoxicity was 0% to 10%)	–	–	–	–
CC=CCOc1cc(-c2c(Cl)n3n(c2=O)CCCC3)c(F)cc1Cl [Example 1-209]	5 (Herbicidal effect/phytotoxicity was 90% or greater)	5 (Herbicidal effect/phytotoxicity was 90% or greater)	5 (Herbicidal effect/phytotoxicity was 90% or greater)	5 (Herbicidal effect/phytotoxicity was 90% or greater)	5 (Herbicidal effect/phytotoxicity was 90% or greater)	5 (Herbicidal effect/phytotoxicity was 90% or greater)	–	–	–	5 (Herbicidal effect/phytotoxicity was 90% or greater)	5 (Herbicidal effect/phytotoxicity was 90% or greater)	5 (Herbicidal effect/phytotoxicity was 90% or greater)	2 (Herbicidal effect/phytotoxicity was 30% to 50%)
CC(C)=CCOc1cc(-c2c(Cl)n3n(c2=O)CCCC3)c(F)cc1Cl [Example 1-219]	5 (Herbicidal effect/phytotoxicity was 90% or greater)	5 (Herbicidal effect/phytotoxicity was 90% or greater)	5 (Herbicidal effect/phytotoxicity was 90% or greater)	5 (Herbicidal effect/phytotoxicity was 90% or greater)	5 (Herbicidal effect/phytotoxicity was 90% or greater)	5 (Herbicidal effect/phytotoxicity was 90% or greater)	–	–	–	5 (Herbicidal effect/phytotoxicity was 90% or greater)	5 (Herbicidal effect/phytotoxicity was 90% or greater)	5 (Herbicidal effect/phytotoxicity was 90% or greater)	2 (Herbicidal effect/phytotoxicity was 30% to 50%)
C=CCCOc1cc(-c2c(Cl)n3n(c2=O)CCCC3)c(F)cc1Cl [Example 1-222]	5 (Herbicidal effect/phytotoxicity was 90% or greater)	5 (Herbicidal effect/phytotoxicity was 90% or greater)	5 (Herbicidal effect/phytotoxicity was 90% or greater)	5 (Herbicidal effect/phytotoxicity was 90% or greater)	5 (Herbicidal effect/phytotoxicity was 90% or greater)	5 (Herbicidal effect/phytotoxicity was 90% or greater)	–	–	–	5 (Herbicidal effect/phytotoxicity was 90% or greater)	5 (Herbicidal effect/phytotoxicity was 90% or greater)	5 (Herbicidal effect/phytotoxicity was 90% or greater)	2 (Herbicidal effect/phytotoxicity was 30% to 50%)
O=c1c(-c2cc(OCC=Cc3ccc(F)cc3)c(Cl)cc2F)c(Cl)n2n1CCCC2 [Example 1-226]	5 (Herbicidal effect/phytotoxicity was 90% or greater)	5 (Herbicidal effect/phytotoxicity was 90% or greater)	5 (Herbicidal effect/phytotoxicity was 90% or greater)	5 (Herbicidal effect/phytotoxicity was 90% or greater)	5 (Herbicidal effect/phytotoxicity was 90% or greater)	5 (Herbicidal effect/phytotoxicity was 90% or greater)	–	–	–	5 (Herbicidal effect/phytotoxicity was 90% or greater)	5 (Herbicidal effect/phytotoxicity was 90% or greater)	5 (Herbicidal effect/phytotoxicity was 90% or greater)	3 (Herbicidal effect/phytotoxicity was 50% to 70%)
CC#CCOc1cc(-c2c(Cl)n3n(c2=O)CCCC3)c(F)cc1Cl [Example 1-246]	5 (Herbicidal effect/phytotoxicity was 90% or greater)	5 (Herbicidal effect/phytotoxicity was 90% or greater)	5 (Herbicidal effect/phytotoxicity was 90% or greater)	5 (Herbicidal effect/phytotoxicity was 90% or greater)	5 (Herbicidal effect/phytotoxicity was 90% or greater)	5 (Herbicidal effect/phytotoxicity was 90% or greater)	–	–	–	5 (Herbicidal effect/phytotoxicity was 90% or greater)	5 (Herbicidal effect/phytotoxicity was 90% or greater)	5 (Herbicidal effect/phytotoxicity was 90% or greater)	1 (Herbicidal effect/phytotoxicity was 10% to 30%)
O=c1c(-c2cc(OC3CCCC3)c(Cl)cc2Cl)c(Cl)n2n1CCCC2 [Example 1-307]	5 (Herbicidal effect/phytotoxicity was 90% or greater)	5 (Herbicidal effect/phytotoxicity was 90% or greater)	5 (Herbicidal effect/phytotoxicity was 90% or greater)	5 (Herbicidal effect/phytotoxicity was 90% or greater)	5 (Herbicidal effect/phytotoxicity was 90% or greater)	5 (Herbicidal effect/phytotoxicity was 90% or greater)	–	–	–	5 (Herbicidal effect/phytotoxicity was 90% or greater)	5 (Herbicidal effect/phytotoxicity was 90% or greater)	5 (Herbicidal effect/phytotoxicity was 90% or greater)	0 (Herbicidal effect/phytotoxicity was 0% to 10%)
C#CCOc1cc(-c2c(F)n3n(c2=O)CCOCC3)c(Cl)cc1Cl [Example 1-364]	5 (Herbicidal effect/phytotoxicity was 90% or greater)	5 (Herbicidal effect/phytotoxicity was 90% or greater)	5 (Herbicidal effect/phytotoxicity was 90% or greater)	5 (Herbicidal effect/phytotoxicity was 90% or greater)	5 (Herbicidal effect/phytotoxicity was 90% or greater)	5 (Herbicidal effect/phytotoxicity was 90% or greater)	–	–	–	5 (Herbicidal effect/phytotoxicity was 90% or greater)	5 (Herbicidal effect/phytotoxicity was 90% or greater)	5 (Herbicidal effect/phytotoxicity was 90% or greater)	1 (Herbicidal effect/phytotoxicity was 10% to 30%)
C#CCOc1cc(-c2c(Cl)n3n(c2=O)CCCC3)c(F)cc1[N+](=O)[O-] [Example 1-418]	–	–	–	–	–	–	5 (Herbicidal effect/phytotoxicity was 90% or greater)	5 (Herbicidal effect/phytotoxicity was 90% or greater)	0 (Herbicidal effect/phytotoxicity was 0% to 10%)	–	–	–	–
